Common to all, as to type: in vivo
Data set [1] has as its system Renal hypertensive awaken rat. The data set can be described thus: Anti-hypertensive activity in the renal hypertensive awaken rat (Grollman method), arterial pressure by bloodless method. The settings on record: oral; for ED20: read-out: ED20 orally. The protocol:
Some illustrative results obtained in the renal hypertensive awaken rat according to the method of A. Grollman (Proc. Soc. Exptl. Biol. Med., 57, 102, 1944) are given in Table 1. The products were administered orally to groups of 4 rats for each dosage level. The arterial pressure was measured by bloodless method immediately before and at the 1st, 3rd, 5th, 7th, 12th, 24th, 36th, 48th and 60th hour after administration.
x ED20 = dose producing a 20% fall in pressure compared to the basal

A short description of data set [2]: Acute toxicity in the mouse, intraperitoneal (approximate LD50). The conditions noted are these: in vivo, ip, 6 dosage levels, read-out: Mouse LD50 i.p. How it is done: (§1) The evaluation of the acute toxicity was carried out in the mouse administering the products by the intraperitoneal route at 6 different dosage levels. The approximate LD50 was determined thereafter.

Data set [3] has as its system Mouse. The description is as above. The conditions noted are these: 6 dosage levels. The protocol: as §1
[4] abbreviates: dose producing a 20% fall in pressure compared to the basal value.

Consider 5 compounds from US4002753A, “6-Substituted 3-carbethoxyhydrazinopyridazines” (I.S.F. S.p.A., priority 1973, dated 1977).

Broadly, the LD50 is the dose expected to kill half of the subjects tested. With `CCOC(=O)NNc1ccc(N(CC)CC(C)O)nn1` (centres unmarked) [Example 6, 3-(2-Carbethoxyhydrazino)-6-[N-(2-hydroxypropyl)ethylamino]-pyridazine], in data set [1], the “Time in hours of half effect appearance” value was found to be 36 h and the “Time in hours of maximum effect appearance” value was determined as 5 h. In addition, the ED20 in data set [1] (setting [4]) turned out to be 1 mg/kg. The median lethal dose (LD50) in data set [2] was 700 mg/kg.

For the compound `C=CCN(CC=C)c1ccc(NNC(=O)OCC)nn1` [Example 5, 3-(2-Carbethoxyhydrazino)-6-diallylaminopyridazine], in data set [1], the “Time in hours of half effect appearance” value came out at 48 h and the “Time in hours of maximum effect appearance” value came to 5 h. Further, in data set [1] (setting [4]), the ED20 is 1 mg/kg. Moreover, the 50% lethal dose (LD50) in data set [2] was determined as 300 mg/kg.

For the compound `CCOC(=O)NNc1nncc2ccccc12` [Binazin, reference compound], in data set [1], the “Time in hours of half effect appearance” value was found to be 20 h and the “Time in hours of maximum effect appearance” value came out at 3 h. The compound further returned an ED20 orally in data set [1] (setting [4]) of 7 mg/kg. The “Mouse LD50 i.p.” value in data set [3] was determined as 500 mg/kg.

As for `CCOC(=O)NNc1ccc(N(C)CC(C)O)nn1` (centres unmarked) [Example 3, 3-(2-Carbethoxyhydrazino)-6-[N-(2-hydroxypropyl)methylamino]-pyridazine], in data set [1], the “Time in hours of half effect appearance” value turned out to be 36 h and the “Time in hours of maximum effect appearance” value is 5 h. In data set [1] (setting [4]), the ED20 was determined as 1 mg/kg. Moreover, the LD50 in data set [2] stood at 700 mg/kg.

In the case of `NNc1nncc2ccccc12` [Hydralazine, reference compound], in data set [1], the “Time in hours of half effect appearance” value was found to be 5 h and the “Time in hours of maximum effect appearance” value was 1 h. Also, the ED20 in data set [1] (setting [4]) was 3 mg/kg. Further, in data set [2], the LD50 was found to be 100 mg/kg.
